Series [1] addresses T1, E3 ubiquitin-protein ligase Mdm2 (Homo sapiens, UniProt Q00987). Nature of the series: Binding affinity to human MDM2 by isothermal titration calorimetry. (In general: Isothermal titration calorimetry measures the heat released or taken up as one component is titrated into another.)
The nature of series [2]: Clearance in iv dosed mouse. The format is ADME, organism-based. To be noted: in vivo.
A short description of series [3]: Oral bioavailability in mouse. To be noted: in vivo. Format: ADME, organism-based.
Series [4] is described as follows: Clearance in iv dosed dog. Format: ADME, organism-based, Canis lupus familiaris. To be noted: in vivo.
A short description of series [5]: Oral bioavailability in dog. The format is ADME, organism-based, Canis lupus familiaris. The settings on record: in vivo.
Series [6] can be described thus: Antiproliferative activity against human HCT116 cells expressing p53 wild type after 16 hrs by BrdU proliferation assay. To be noted: HCT-116, 16 h. The format is functional, cell-based.
Series [7] in a line: Antiproliferative activity p53 -deficient human HCT116 cells after 16 hrs by BrdU proliferation assay. The format is functional, cell-based. The settings on record: HCT-116, 16 h.
Series [8] concerns SJSA-1. Nature of the series: Antitumor activity against human SJSA1 cells xenografted in athymic nude mouse assessed as complete tumor regression at 25 to 50 mg/kg, po qd for 4 days measured after 30 days. Format: functional, organism-based. A general note: Xenograft models place foreign cells or tissue in a host animal.
The test system of series [9] is Mus musculus. Kind of series: Toxicity in human SJSA1 cells xenografted athymic nude mouse assessed as body weight loss at 10 to 50 mg/kg, po qd for 4 days. To be noted: in vivo, 96 h. The format is organism-based, SJSA-1. Details: dose 10-50 mg/kg, route oral.
Series [10] can be described thus: Antitumor activity against human HCT116 cells xenografted in athymic nude mouse assessed as tumor growth inhibition at 100 mg/kg, po qd starting on day 10 of tumor implantation. The format is functional. To be noted: HCT-116, 240 h, read-out: TGI.
A short description of series [11]: Drug metabolism in rat hepatocytes assessed as oxidative metabolite M2 formation at 10 uM after 2 hrs by LC/MS analysis. Format: ADME, cell-based, Hepatocyte.
A short description of series [12]: Drug metabolism in dog hepatocytes assessed as oxidative metabolite M2 formation at 10 uM after 2 hrs by LC/MS analysis. The format is ADME, cell-based, Canis lupus familiaris, Hepatocyte.
Series [13] is described as follows: Drug metabolism in cynomolgus monkey hepatocytes assessed as oxidative metabolite M2 formation at 10 uM after 2 hrs by LC/MS analysis. The format is ADME, cell-based, Macaca fascicularis, Hepatocyte.
Series [14] can be described thus: Drug metabolism in human hepatocytes assessed as oxidative metabolite M2 formation at 10 uM after 2 hrs by LC/MS analysis. Format: ADME, cell-based, Hepatocyte.
Series [15] can be described thus: Drug metabolism in rat hepatocytes assessed as demethylated metabolite M3 formation at 10 uM after 2 hrs by LC/MS analysis. Format: ADME, cell-based, Hepatocyte.
A short description of series [16]: Drug metabolism in dog hepatocytes assessed as demethylated metabolite M3 formation at 10 uM after 2 hrs by LC/MS analysis. Format: ADME, cell-based, Canis lupus familiaris, Hepatocyte.
A short description of series [17]: Drug metabolism in cynomolgus monkey hepatocytes assessed as demethylated metabolite M3 formation at 10 uM after 2 hrs by LC/MS analysis. The format is ADME, cell-based, Macaca fascicularis, Hepatocyte.
Series [18] can be described thus: Drug metabolism in human hepatocytes assessed as demethylated metabolite M3 formation at 10 uM after 2 hrs by LC/MS analysis. Format: ADME, cell-based, Hepatocyte.
The target of series [19] is T1, E3 ubiquitin-protein ligase Mdm2.
Series [20] addresses T2, CYP3A4 (Homo sapiens, UniProt P08684). Kind of series: Inhibition of CYP3A4 (unknown origin) at 3 uM. The format is ADME.
For series [21], the target named is T2, CYP3A4. Nature of the series: Time-dependent inhibition of CYP3A4 (unknown origin) assessed as remaining activity at 10 uM after 30 mins. To be noted: read-out: Activity. The format is ADME.
Series [22] has as its target T3, PXR (NR1I2) (Homo sapiens, UniProt O75469).
T3 sequence (O75469 whole entry): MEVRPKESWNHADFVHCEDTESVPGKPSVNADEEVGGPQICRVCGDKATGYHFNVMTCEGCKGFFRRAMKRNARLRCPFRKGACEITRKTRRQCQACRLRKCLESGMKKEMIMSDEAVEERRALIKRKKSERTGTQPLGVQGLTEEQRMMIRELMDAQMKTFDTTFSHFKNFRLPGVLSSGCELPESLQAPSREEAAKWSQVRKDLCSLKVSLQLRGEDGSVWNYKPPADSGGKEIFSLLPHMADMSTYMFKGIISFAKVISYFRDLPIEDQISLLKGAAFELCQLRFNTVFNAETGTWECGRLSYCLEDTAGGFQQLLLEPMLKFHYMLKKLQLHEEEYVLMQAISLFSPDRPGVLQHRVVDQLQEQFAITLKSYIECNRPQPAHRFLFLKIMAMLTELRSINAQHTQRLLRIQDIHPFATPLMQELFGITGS
Kind of series: Activation of human PXR at 2 uM relative to control. Format: ADME. To be noted: read-out: Activity.

A short description of series [23]: animal or person. The settings on record: Homo sapiens, HCT-116, po, 240 h.

Activity calls are given as the source filed them. No cut-off for these calls is given here. Some results are limits rather than exact numbers.

T2 sequence (P08684 whole entry): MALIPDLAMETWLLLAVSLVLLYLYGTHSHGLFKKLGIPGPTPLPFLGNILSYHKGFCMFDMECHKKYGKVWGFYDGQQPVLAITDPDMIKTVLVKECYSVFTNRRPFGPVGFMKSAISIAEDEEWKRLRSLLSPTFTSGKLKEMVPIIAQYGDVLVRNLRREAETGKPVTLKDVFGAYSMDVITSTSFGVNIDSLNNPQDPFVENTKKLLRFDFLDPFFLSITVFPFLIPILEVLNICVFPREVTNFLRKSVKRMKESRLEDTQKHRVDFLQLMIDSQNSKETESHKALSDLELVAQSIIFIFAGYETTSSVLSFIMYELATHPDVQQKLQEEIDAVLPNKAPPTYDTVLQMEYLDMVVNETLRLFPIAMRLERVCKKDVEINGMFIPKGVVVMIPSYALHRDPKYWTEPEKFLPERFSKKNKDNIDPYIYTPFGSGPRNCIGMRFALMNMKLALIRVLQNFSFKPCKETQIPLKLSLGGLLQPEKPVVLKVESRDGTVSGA
T1 sequence (Q00987 whole entry): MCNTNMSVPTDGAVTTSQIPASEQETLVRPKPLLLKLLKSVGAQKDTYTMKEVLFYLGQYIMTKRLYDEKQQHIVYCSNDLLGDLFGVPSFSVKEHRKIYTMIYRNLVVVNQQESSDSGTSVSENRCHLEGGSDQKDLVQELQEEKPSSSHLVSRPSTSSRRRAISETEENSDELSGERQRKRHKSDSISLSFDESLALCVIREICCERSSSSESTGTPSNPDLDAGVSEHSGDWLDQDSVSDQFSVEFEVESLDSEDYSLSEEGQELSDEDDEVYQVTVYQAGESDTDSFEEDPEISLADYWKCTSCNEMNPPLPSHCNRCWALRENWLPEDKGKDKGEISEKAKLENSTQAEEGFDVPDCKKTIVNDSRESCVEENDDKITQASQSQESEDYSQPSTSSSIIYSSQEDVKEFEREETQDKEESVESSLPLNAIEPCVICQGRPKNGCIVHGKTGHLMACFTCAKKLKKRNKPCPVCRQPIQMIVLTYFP

With `COc1cc(NC(=O)C[C@@]2(C)C[C@H](c3cccc(Cl)c3)[C@@H](c3ccc(Cl)c(F)c3)N([C@H](CS(=O)(=O)C(C)(C)C)C3CC3)C2=O)ccc1C(=O)O`, binding in series [1] was put at a Kd of 0.038 nM. In addition, the clearance (commonly the rate of elimination divided by the concentration) in series [2] is 0.433 mL/min/kg; in series [4], 11.5 mL/min/kg. For the same molecule, the bioavailability (usually the share of a dose that reaches the circulation, judged against a reference dose that is usually intravenous) in series [3] is 30%; in series [5], 45%. The results for the IC50 in series [6], in series [7] and in series [19] were 2 nM, above 25000 nM and 0.6 nM, respectively. Also, the Activity result in [8] was “Active”. Also, the Activity result in [9] is reported as “<= 5%”. In series [10], the inhibition in vivo at 100 mg/kg came out at 100%. Moreover, the Drug metabolism result in series [11], in [12], in series [13], in series [14], in [15] and in [16] was “metabolite_detected” throughout. Besides, the Drug metabolism entry in series [17] and in series [18] was “metabolite_detected” each time. In addition, the inhibition (in general, the drop in the measured response relative to a control, in per cent) at 3 µM in [20] was below 10%. In addition, the activity at 0.5 h, 10 µM in [21] was found to be 63%. In addition, the activity at 2 µM in series [22] was 0%. The 50% effective dose (ED50) – broadly, the midpoint of the dose-response relation – in [23] worked out at 10 mg/kg.

(Values after ChEMBL document CHEMBL3407331, “Discovery of AM-7209, a potent and selective 4-amidobenzoic acid inhibitor of the MDM2-p53 interaction” (J Med Chem, 2014).)
